Measurements reported in paper PMC11121064 (International Journal of Molecular Sciences, 2024).
Read-outs that look alike come from different tables or passages of the source. Blank lines part the entries; values can stand above or below the compound they belong to.

How the values were obtained:
[1] = test system: extrinsic coagulation pathway; test: Prothrombin time (PT) and INR in human citrated plasma
Description: The first stage assessed the changes in plasma hemostasis occurring under the influence of the five test compounds. Plasma was incubated with the tested compounds and ligands at six different concentrations ranging from 0.5 to 100 µmol/L. The plasma was obtained from five different volunteers. To evaluate the impact on the extrinsic coagulation pathway, the prothrombin time (PT) was determined in human citrated plasma, expressed in seconds and as the international normalized ratio (INR) (Figure 6 and Figure 7).
(§1) The plasma was used for the hemostasis tests.
The results are presented as means ± standard deviation (SD).

red blood cells (RBCs) = test: Erythrotoxicity (RBC hemolysis, lysis assay); assay type: cell-based, human; conditions: 24 h, 50 µmol/L and 100 µmol/L, 2% RBC suspension
Description: Their erythrotoxicity was also assessed. Red blood cells are model cells used in basic studies of the biocompatibility of new compounds and some medical materials. […] The amount of hemoglobin released from damaged cells was measured using a spectrophotometer.
Erythrotoxicity was assessed in a 2% erythrocyte suspension following 1 h and 24 h of incubation with the tested compounds.
as §1
The influence of the compounds on the red blood cells (RBCs)’ membrane integrity was assessed using a lysis assay, as described previously. Briefly, the tested compounds (1 to 100 μmol/L) were incubated in a 2% RBC suspension in 0.9% NaCl at 37 °C for 24 h; solvent was used as the control. The samples were then centrifuged at 3000× g for 10 min, and the absorbance of the supernatant was determined at 550 nm (maximum absorbance for hemoglobin). The results are presented as the degree of hemolysis, i.e., the percentage of released hemoglobin. A sample containing Triton X-100 was used as the positive control (100% hemolysis), whereas a sample of saline solution represented spontaneous hemolysis of the RBCs (control).

[2] = test system: melanoma A375 tumor cell line; test: MTT reduction assay, A375 melanoma cells; assay type: cell-based, human
Description: (§2) The cytotoxic activity was measured against the melanoma A375 tumor cell line (ECACC) and the human BJ fibroblast cell line (ATCC) using an MTT reduction assay. The selectivity index (SI) was calculated using the following formula: SI = IC50 (BJ)/ IC50 (A375).
The A375 cell line was purchased from the European Collection of Authenticated Cell Cultures (ECACC, Salisbury, UK) and the BJ human fibroblast cell line from the American Type Culture Collection (ATCC, Manassas, VA, USA). All the cell lines were grown as a monolayer in standard conditions: 37 °C, 100% humidity, under an atmosphere of 5% CO2. […] The BJ cell line was grown in EMEM with EBSS, NEAA and sodium pyruvate with L-Glutamine supplemented, 10% fetal bovine serum and 50 IU/mL penicillin/streptomycin.
(§3) Next, the cells were seeded in 96-well plates at a density of 5000 cells per well and incubated overnight to reach the logarithmic growth phase. […] After 72 h, 10 µL of MTT solution (5 g/L) was added into each well and incubated for an additional four hours. Subsequently, the medium was removed, and 100 µL of dimethyl sulfoxide (DMSO) was added into each well. The absorbance was then measured at 570 nm using a SPECTROstar Nano microplate reader (BMG Biotech Inc., Cary, NC, USA)/Tecan Spark 10M. The mean value from three independent BJ and A375 cell cultures was taken to calculate the cell viability, expressed as a percentage of the control values, i.e., untreated cells assumed as 100%.

[3] = test system: human BJ fibroblast cell line; test: MTT reduction assay, BJ fibroblasts; assay type: cell-based; conditions: 72 h
Description: as §2
The A375 cell line was purchased from the European Collection of Authenticated Cell Cultures (ECACC, Salisbury, UK) and the BJ human fibroblast cell line from the American Type Culture Collection (ATCC, Manassas, VA, USA). All the cell lines were grown as a monolayer in standard conditions: 37 °C, 100% humidity, under an atmosphere of 5% CO2. The A375 cells were cultured in Dulbecco’s Modified Eagle Medium supplemented with 15% fetal calf serum and 50 IU/mL penicillin/streptomycin. The BJ cell line was grown in EMEM with EBSS, NEAA and sodium pyruvate with L-Glutamine supplemented, 10% fetal bovine serum and 50 IU/mL penicillin/streptomycin.
as §3

[4] = test system: clot formation and fibrinolysis in human citrate plasma; test: Clot formation and fibrinolysis test (CL-test); conditions: for CLAUC overall potential for clot formation and fibrinolysis / Fmax maximum clotting / Fvo initial plasma clotting velocity / Lmax maximum lysis / Lvo initial clot fibrinolysis velocity / Sc area under the curve of stable clot formation / Sf area under the fibrinolysis curve / Sr area under the clot formation curve / Tc clot stabilization time / Tf plasma clotting time / Tl fibrinolysis time / Tt thrombin time: mean, n = 3
Description: Following this, the impact of the tested complex compounds and their ligands on the overall clot formation and fibrinolysis potential (CLAUC) and individual kinetic parameters was assessed using the CL-test. The analysis was performed using plasma from three different donors.
The blood samples used were residual materials from routine diagnostic studies, destined for disposal as medical waste. […] Platelet-poor plasma (PPP) and red blood cells were obtained using centrifugation at 3000× g for 10 min at room temperature using a Mikro 22R centrifuge (Hettich Zentrifugen, Tuttlingen, Germany). The plasma was used for the hemostasis tests. Before use, the centrifuged erythrocyte mass was washed three times with physiological saline solution to remove the plasma protein residues and other blood cells.
The influence of the compounds on the overall hemostasis potential was determined using the CL-test through continuous measurement of changes in optical transmittance, as described previously [53, 54]. The experiments were conducted using three-fold diluted human citrate plasma, t-PA and thrombin. […] The results are presented as means ± SD (n = 3). The curves were used to determine the kinetic parameters of clot formation, stabilization and fibrinolysis using dedicated software [51]. The following parameters of clot formation were determined: Tt—thrombin time (s), Fmax—maximum clotting (%T), Tf—plasma clotting time (s), Fvo—initial plasma clotting velocity (%T/min), Sr—area under the clot formation curve (%Txmin). The parameters of the clot stabilization phase comprised Tc—clot stabilization time (s) and Sc—area under the curve of stable clot formation (%Txmin). The parameters of fibrinolysis comprised Lmax—maximum lysis (%T), Tl—fibrinolysis time (s), Lvo—initial clot fibrinolysis velocity (%T/min) and Sf—area under the fibrinolysis curve (%Txmin). Additionally, the overall potential for clot formation and fibrinolysis, i.e., CLAUC (%Txmin), was also estimated.

[5] = test system: intrinsic coagulation pathway; conditions: 100 µmol/L (highest concentration), mean within reference range 26.7–40.0 s
Description: To evaluate the intrinsic coagulation pathway, the plasma was mixed with the tested compounds at the same concentrations as in the PT analysis, and the activated partial thromboplastin time (APTT) was measured.
as §1
The PT, APTT and TT were measured using a Coag Chrom 3003 coagulometer (Bio-Ksel, Grudziadz, Poland) according to the manufacturer’s instructions, using commercially available reagents (Bio-Ksel, Grudziadz, Poland). The experiment was conducted as three independent experiments (in duplicate); distilled water or methanol was used as the control.

effect on prothrombin time (PT) ([1]; 100 µmol/L, human citrated plasma): significantly lengthened
Compound: O=S(=O)([O-])[O-].[Ag+].[Ag+] [Ag2SO4, reference compound]
erythrocyte hemolysis (red blood cells (RBCs)): > 60%

Compound: O=[N+]([O-])[O-].[Ag+] [AgNO3, silver(I) nitrate]
effect on A375 cell viability ([2]; 72 h of exposure): dose-dependent reduction | IC50 ([2]; MTT, 72 h): 11.1 ± 0.8 µM | IC50 [3]: > 100 µM | erythrocyte hemolysis (red blood cells (RBCs)): > 60% | effect on CLAUC and kinetic parameters of clot formation and lysis ([4]; entire concentration range 0.5–100 µmol/L): no significant differences

prolongation of PT and INR beyond the reference range ([1]; up to 100 µmol/L, reference PT 9.7–14.6 s, INR 0.8–1.2): do not cause pathological prolongation | effect on APTT ([5]; listed as metronidazole complex with Ag2SO4): significantly prolonged | effect on APTT ([5]; listed as metronidazole with Ag2SO4): statistically significant prolongation | CLAUC overall potential for clot formation and fibrinolysis ([4]; 0.5 µmol/L): 348.3 %*min | Fmax maximum clotting ([4]; 0.5 µmol/L): 70.6% | Fvo initial plasma clotting velocity ([4]; 0.5 µmol/L): 160.0 %/min | Lmax maximum lysis ([4]; 0.5 µmol/L): 69.8% | Lvo initial clot fibrinolysis velocity ([4]; 0.5 µmol/L): 20.3 %/min | Sc area under the curve of stable clot formation ([4]; 0.5 µmol/L): 165.1 %*min | Sf area under the fibrinolysis curve ([4]; 0.5 µmol/L): 135.9 %*min | Sr area under the clot formation curve ([4]; 0.5 µmol/L): 47.3 %*min | Tc clot stabilization time ([4]; 0.5 µmol/L): 144.3 s | Tf plasma clotting time ([4]; 0.5 µmol/L): 59.1 s | Tl fibrinolysis time ([4]; 0.5 µmol/L): 196.7 s | Tt thrombin time ([4]; 0.5 µmol/L): 20.1 s | CLAUC overall potential for clot formation and fibrinolysis ([4]; 1.0 µmol/L): 417.7 %*min | Fmax maximum clotting ([4]; 1.0 µmol/L): 73.8% | Fvo initial plasma clotting velocity ([4]; 1.0 µmol/L): 181.0 %/min | Lmax maximum lysis ([4]; 1.0 µmol/L): 73.5% | Lvo initial clot fibrinolysis velocity ([4]; 1.0 µmol/L): 19.8 %/min | Sc area under the curve of stable clot formation ([4]; 1.0 µmol/L): 207.8 %*min | Sf area under the fibrinolysis curve ([4]; 1.0 µmol/L): 157.6 %*min | Sr area under the clot formation curve ([4]; 1.0 µmol/L): 52.4 %*min | Tc clot stabilization time ([4]; 1.0 µmol/L): 174.3 s | Tf plasma clotting time ([4]; 1.0 µmol/L): 61.2 s | Tl fibrinolysis time ([4]; 1.0 µmol/L): 226.3 s | Tt thrombin time ([4]; 1.0 µmol/L): 20.5 s | CLAUC overall potential for clot formation and fibrinolysis ([4]; 5.0 µmol/L): 411.1 %*min | Fmax maximum clotting ([4]; 5.0 µmol/L): 78.6% | Fvo initial plasma clotting velocity ([4]; 5.0 µmol/L): 212.3 %/min | Lmax maximum lysis ([4]; 5.0 µmol/L): 77.9% | Lvo initial clot fibrinolysis velocity ([4]; 5.0 µmol/L): 24.8 %/min | Sc area under the curve of stable clot formation ([4]; 5.0 µmol/L): 210.7 %*min | Sf area under the fibrinolysis curve ([4]; 5.0 µmol/L): 155.5 %*min | Sr area under the clot formation curve ([4]; 5.0 µmol/L): 44.8 %*min | Tc clot stabilization time ([4]; 5.0 µmol/L): 166.7 s | Tf plasma clotting time ([4]; 5.0 µmol/L): 50.2 s | Tl fibrinolysis time ([4]; 5.0 µmol/L): 204.7 s | Tt thrombin time ([4]; 5.0 µmol/L): 19.7 s | CLAUC overall potential for clot formation and fibrinolysis ([4]; 10.0 µmol/L): 406.3 %*min | Fmax maximum clotting ([4]; 10.0 µmol/L): 75.7% | Fvo initial plasma clotting velocity ([4]; 10.0 µmol/L): 178.3 %/min | Lmax maximum lysis ([4]; 10.0 µmol/L): 75.0% | Lvo initial clot fibrinolysis velocity ([4]; 10.0 µmol/L): 21.5 %/min | Sc area under the curve of stable clot formation ([4]; 10.0 µmol/L): 203.7 %*min | Sf area under the fibrinolysis curve ([4]; 10.0 µmol/L): 156.2 %*min | Sr area under the clot formation curve ([4]; 10.0 µmol/L): 46.4 %*min | Tc clot stabilization time ([4]; 10.0 µmol/L): 166.7 s | Tf plasma clotting time ([4]; 10.0 µmol/L): 55.0 s | Tl fibrinolysis time ([4]; 10.0 µmol/L): 208.3 s | Tt thrombin time ([4]; 10.0 µmol/L): 20.7 s | CLAUC overall potential for clot formation and fibrinolysis ([4]; 50.0 µmol/L): 421.1 %*min | Fmax maximum clotting ([4]; 50.0 µmol/L): 76.9% | Fvo initial plasma clotting velocity ([4]; 50.0 µmol/L): 159.6 %/min | Lmax maximum lysis ([4]; 50.0 µmol/L): 74.3% | Lvo initial clot fibrinolysis velocity ([4]; 50.0 µmol/L): 21.7 %/min | Sc area under the curve of stable clot formation ([4]; 50.0 µmol/L): 184.0 %*min | Sf area under the fibrinolysis curve ([4]; 50.0 µmol/L): 175.2 %*min | Sr area under the clot formation curve ([4]; 50.0 µmol/L): 47.5 %*min | Tc clot stabilization time ([4]; 50.0 µmol/L): 158.7 s | Tf plasma clotting time ([4]; 50.0 µmol/L): 58.4 s | Tl fibrinolysis time ([4]; 50.0 µmol/L): 200.7 s | Tt thrombin time ([4]; 50.0 µmol/L): 20.7 s | CLAUC overall potential for clot formation and fibrinolysis ([4]; 100.0 µmol/L): 390.3 %*min | Fmax maximum clotting ([4]; 100.0 µmol/L): 72.3% | Fvo initial plasma clotting velocity ([4]; 100.0 µmol/L): 159.3 %/min | Lmax maximum lysis ([4]; 100.0 µmol/L): 72.0% | Lvo initial clot fibrinolysis velocity ([4]; 100.0 µmol/L): 22.1 %/min | Sc area under the curve of stable clot formation ([4]; 100.0 µmol/L): 194.4 %*min | Sf area under the fibrinolysis curve ([4]; 100.0 µmol/L): 145.2 %*min | Sr area under the clot formation curve ([4]; 100.0 µmol/L): 50.8 %*min | Tc clot stabilization time ([4]; 100.0 µmol/L): 166.3 s | Tf plasma clotting time ([4]; 100.0 µmol/L): 62.6 s | Tl fibrinolysis time ([4]; 100.0 µmol/L): 219.7 s | Tt thrombin time ([4]; 100.0 µmol/L): 20.5 s
Compound: Cc1ncc([N+](=O)[O-])n1CCO.Cc1ncc([N+](=O)[O-])n1CCO.Cc1ncc([N+](=O)[O-])n1CCO.Cc1ncc([N+](=O)[O-])n1CCO.O=S(=O)([O-])[O-].[Ag+].[Ag+] [[(MTZ)2Ag]2SO4, metronidazole silver(I) sulfate]
